# US7728039B2, “Biphenyl and Naphthyl-Phenyl Hydroxamic Acid Derivatives” (Sigma-Tau Industrie Farmaceutiche Riunite S.p.A., priority 2005, dated 2010)
# Read-outs that look alike come from different tables or passages of the source.
# Tests used:
# [1] = system: NCI-H460 R9A tumour cells (H460/(R9A), resistant to carboxylic acid-bearing compounds); assay: Sulphorodamine B cytotoxicity test on ST1926-resistant NCI-H460 R9A cells; type: cell-based; conditions: for overcoming of resistance on H460/R9A: H460/R9A versus sensitive NCI-H460, result in words; for IC50: Table 3, resistant NCI-H460 R9A, SRB, read-out: IC50 ± SD, NCI-H460 R9A; for RI (resistance index): IC50 on resistant tumour cell line/IC50 on sensitive tumour cell line (NCI-H460 R9A / NCI-H460)
# Text: (§1) The cytotoxic effect of some biphenyl and phenylnaphthyl compounds bearing a hydroxamic acid group is reported herein. […] The chemical structures of the tested compounds of the invention and of the corresponding compounds bearing a carboxylic acid group are reported in FIG. 1. To test the effects of the compounds on cell growth, NB4 human promyelocytic leukaemia, NCI-H460 non-small cell carcinoma cells, H460/(R9A) (resistant to carboxylic acid-bearing compounds: ST1898, ST1926, ST1964), HCT-116 human colon carcinoma cells, IGROV-1 and IGROV-1/Pt (sensitive ovarian carcinoma and platinum-resistant ovarian carcinoma cells, respectively) were used. NB4 and NCI-H460 tumour cells were grown in RPMI 1640 containing 10% foetal bovine serum (GIBCO), HCT-116 tumour cells were grown in McCoy's 5A containing 10% foetal bovine serum (GIBCO), IGROV-1 and IGROV-1/Pt were grown in DMEM containing 10% foetal bovine serum (GIBCO),
# (§2) Tumour cells were seeded in 96-well tissue culture plates at approximately 10% confluence and were allowed to attach and recover for at least 24 h. Varying concentrations of the drugs were then added to each well to calculate their IC50 value (the concentration which inhibits the 50% of cell survival). The plates were incubated for 24 h at 37° C. At the end of the treatment, for NB4 tumour cells in suspension, the procedure was performed as follows: medium culture was removed by centrifugation of the plates at 1600×g for 10 min and the surnatant was removed. 250 μl PBS were added, then the plates were centrifuged at 1600×g for 10 min, the surnatant was removed. 200 μl/well of medium culture RPMI 1640 containing 10% FCS were added and the plates were incubated at 37° C. for other 48 h. The plates were centrifuged again at 1600×g for 10 min, the medium culture was removed and 200 μl PBS and 50 μl of cold 80% TCA were added. The plates were incubated on ice for at least 1 h. TCA was removed, the plates were washed 3 times for immersion in distilled-water and dried on paper and at 40° C. for 5 min. Then 200 μl of 0.4% sulphorodamine B in 1% acetic acid were added. The plates were incubated at room temperature for other 30 min. Sulphorodamine B was removed, the plates were washed for immersion in 1% acetic acid for 3 times, then they were dried on paper and at 40° C. for 5 min. Then 200 μl Tris 10 mM were added, the plates were kept under stirring for 20 min. The survival cell was determined as optical density by a Multiskan spectrofluorimeter at 540 nm. For the tumour cells in adhesion (NCI-H460 and HCT-116), the procedure was as above mentioned, except that at the end of the treatment, the plates were washed by remotion of the surnatant and addition of PBS 3 times without centrifugation. Also the last day of the assay, the surnatant was removed without centrifugation.
# (§3) The amount of cells killed was calculated as the percentage decrease in sulphorodamine B binding compared with control cultures. The IC50 values (the concentration which inhibits the 50% of cell survival) were calculated with the “ALLFIT” program.
# The resistant tumour cell line NCI H460 R9A was a clone selected for the resistance to ST1926 (Table 3). To obtain the resistant tumour cell line, the sensitive NCI-H460 tumour cells were treated with 2 μM ST1926 for 24 hours and maintained in drug-free medium for a recovering time of 7 days. Then, survived cells were cultured applying a continuous selective pressure of 2 μM (10×IC50) ST1926. Resistant NCI-H460 cells were subculture for 3-4 times before increasing ST1926 concentration to 4 μM (20×IC50). Survived cells were seeded in 96-well plates to isolate resistant cells clones and maintained in complete medium with 4 μM of ST1926. The tumour cell line was maintained at least for one week, before seeding for SRB cytotoxicity assay, in drug-free medium.
# To evaluate the effect of the compound on survival cells, the sulphorodamine B test was used. […]
# [2] = system: HCT-116 human colon carcinoma cells; assay: Sulphorodamine B cytotoxicity test on HCT-116 cells; type: cell-based; conditions: Homo sapiens, Table 2, SRB, read-out: IC50 ± SD, HCT-116
# Text: as §1, §2, §3
# [3] = system: IGROV-1 (sensitive ovarian carcinoma cells); assay: Sulphorodamine B cytotoxicity test on IGROV-1 cells; type: cell-based; conditions: read-out: IC50 ± SD, IGROV-1
# Text: as §1, §2, §3
# [4] = system: NB4 human promyelocytic leukaemia; assay: Sulphorodamine B cytotoxicity test on NB4 cells; type: cell-based
# Text: as §1, §2, §3
# [5] = system: IGROV-1/Pt (platinum-resistant ovarian carcinoma cells); assay: Sulphorodamine B cytotoxicity test on IGROV-1/Pt cells; type: cell-based; conditions: read-out: IC50 ± SD, IGROV-1/Pt
# Text: as §1, §2, §3
# [6] = system: NCI-H460 non-small cell carcinoma cells; assay: Sulphorodamine B cytotoxicity test on NCI-H460 cells; type: cell-based; conditions: SRB, read-out: IC50 ± SD, NCI-H460
# Protocol: The chemical structures of the tested compounds of the invention and of the corresponding compounds bearing a carboxylic acid group are reported in FIG. 1. […] NB4 and NCI-H460 tumour cells were grown in RPMI 1640 containing 10% foetal bovine serum (GIBCO), HCT-116 tumour cells were grown in McCoy's 5A containing 10% foetal bovine serum (GIBCO), IGROV-1 and IGROV-1/Pt were grown in DMEM containing 10% foetal bovine serum (GIBCO),
# as §2, §3
# [7] = system: NB4 promyelocytic leukaemia cells; assay: Differentiation of NB4 tumour cells by nitroblue tetrazolium (NBT) reduction, with or without ATRA; type: cell-based, human; conditions: 3 days, NBT-reducing activity; for Differentiation AC50: compound alone (without ATRA); for AC50: Homo sapiens, 72 h, combined with suboptimal ATRA (5 nM)
# Text: Relevant aspects of the differentiation program set in motion by ATRA in APL cells can be reproduced in primary cultures of leukemic blasts and in the derived NB4 cell line, which is a unique model for the study of the pharmacologic activity of ATRA and derivatives. Pharmacological concentrations of ATRA arrest the growth of NB4 blasts and differentiate them into cells that resemble mature neutrophils. This is followed by a slow process of apoptosis. […] In particular, the differentiation of NB4 tumour cells induced by the compounds was determined by nitroblue tetrazolium (NBT) reduction. NB4 promyelocytic leukaemia cells were seeded at a density of 150000 cells/ml in RPMI 1640 medium containing 10% FCS. To measure the cytodifferentiating effect of the molecules, tumour cells were treated with the compounds at different concentrations starting from at least 0.4 μM to 0.01 μM, whereas to measure the enhancing action of the molecules of ATRA activity, NB4 cells were treated with increasing concentrations of the molecules in the presence or absence of ATRA at a suboptimal concentration (5 nM).
# Tumour cells were incubated for 3 days at 37° C. without replacing the medium culture. To measure the prodifferentiative effect, 500,000 cells were collected, centrifuged and resuspended in 1 ml of RPMI 1640 medium containing 10% FCS, 1 mg/ml of nitroblue tetrazolium (NBT) and 100 ng of PMA (4-phorbol-12-myristate-13-acetate). The tumour cells resuspended were incubated at 37° C. for 60 min. At the end of the incubation, tumour cells were centrifuged and the pellet was resuspended in 1 ml of PBS containing Triton ×100 at 10%. The samples were sonicated and the absorbance was determined at 540 nm with a spectrophotometer. Differentiation of tumor cells as AC50 (activating concentration) was evaluated as the concentration of the compound giving 50% of the maximal induction of NBT-reducing activity with or without ATRA.
# [8] = Homo sapiens, NB-4, Table 1, NB4, 24 h treatment, 48 h recovery, SRB, read-out: IC50 ± SD, NB4
# [9] = Homo sapiens, NCI-H460, Table 2, NCI-H460
# [10] = Homo sapiens, NCI-H460, Table 3, sensitive NCI-H460
# [11] = Homo sapiens, NB-4, Table 4, NB4 tumour cells, compound alone, read-out: IC50 (μM ± SD)
# [12] = Table 4, NB4 tumour cells, compound alone, read-out: IC50 (μM ± SD)
Compound,overcoming of resistance on H460/R9A [1],IC50 ([1]; Homo sapiens) [µM],RI (resistance index) [1],IC50 [2] [µM],"IC50 [6, 9] [µM]","IC50 [6, 10] [µM]",Differentiation AC50 [7],"IC50 [4, 11] [µM]",also measured
"COc1ccc(-c2ccc(/C=C/C(=O)NO)cc2)cc1C12CC3CC(CC(C3)C1)C2 [ST3056, E-3-(3′-Adamantan-1-yl-4′-methoxy-biphenyl-4-yl)-N-hydroxy-acrylamide]",completely overcame the resistance,1.2 ± 0.04,1.9,1.3 ± 0.1,0.62 ± 0.04,0.62 ± 0.04,,,"IC50 ([3]; Homo sapiens, Table 1, SRB): 0.96 ± 0.03 µM; IC50 [4, 8]: 0.6 ± 0.05 µM; IC50 ([5]; Homo sapiens, Table 1, SRB): 1.79 ± 0.07 µM"
"CN(C)c1ccc(-c2ccc(/C=C/C(=O)NO)cc2)cc1 [ST3444, E-3-[4′-dimethylaminobiphenyl-4-yl]-N-hydroxy-acrylamide, reference compound]",,,,,,,no differentiation,0.86 ± 0.05,
"COc1ccc(-c2ccc(/C=C/C(=O)O)cc2)cc1C12CC3CC(CC(C3)C1)C2 [ST1898, reference compound]",,,53.6,,,,,,"IC50 [1]: 64.4 ± 5 µM; IC50 ([3]; Table 1, SRB): 1.19 ± 0.05 µM; IC50 ([4]; Table 1, NB4, 24 h treatment, 48 h recovery, SRB, read-out: IC50 ± SD, NB4): 1.1 ± 0.07 µM; IC50 ([5]; Table 1, SRB): 1.43 ± 0.05 µM; IC50 ([6]; Table 3, sensitive NCI-H460): 1.2 ± 0.02 µM"
"E,E-5-biphenylyl-pentadienoic acid N-hydroxyamide [ST3400, reference compound]",,,,,,,no differentiation,,"IC50 [4, 12]: 0.66 ± 0.003 µM"
"O=C(/C=C/c1ccc(-c2ccccc2)cc1)NO [ST3256, E-3-(biphenyl-4-yl)-N-hydroxy-acrylamide, reference compound]",,,,,,,no differentiation,0.9 ± 0.1,
"O=C(/C=C/c1ccc(-c2ccc(O)cc2)cc1)NO [ST2782, E-3-(4′-hydroxy-biphenyl-4-yl)-N-hydroxy-acrylamide]",the same characteristic are retained,1.8 ± 0.16,,6.7 ± 0.7,6 ± 0.9,,no differentiation,2.3 ± 0.02,"AC50 [7]: 2.47 µM; IC50 ([3]; Homo sapiens, Table 1, SRB): 8.8 ± 3 µM; IC50 [4, 8]: 2.3 ± 0.02 µM; IC50 ([5]; Homo sapiens, Table 1, SRB): 7.7 ± 1.6 µM"
"O=C(O)/C=C/c1ccc(-c2ccc(O)cc2)cc1 [ST2188, E-4-(4-hydroxyphenyl)cinnamic acid, reference compound]",,,,,,,,,"IC50 ([3]; Homo sapiens, Table 1, SRB): 89 ± 11 µM; IC50 [4, 8]: 78.7 ± 7.4 µM; IC50 ([5]; Homo sapiens, Table 1, SRB): 156 ± 2 µM"
"O=C(/C=C/c1ccc(-c2ccc(O)c(C34CC5CC(CC(C5)C3)C4)c2)cc1)NO [ST2992, E-3-[3′-(1-adamantyl)-4′-hydroxy-biphenyl-4-yl]-N-hydroxy-acrylamide]",completely overcame the resistance,1.2 ± 0.1,1.0,3 ± 0.2,1.2 ± 0.03,1.2 ± 0.03,no differentiation,0.68 ± 0.07,"AC50 [7]: 0.19 µM; IC50 ([3]; Homo sapiens, Table 2, SRB): 0.77 ± 0.05 µM; IC50 ([5]; Homo sapiens, Table 2, SRB): 0.55 ± 0.05 µM"
"O=C(/C=C/c1ccc(-c2ccc(O)c(C34CC5CC(CC(C5)C3)C4)c2)c(Cl)c1)NO [ST3088, E-3-(3′-Adamantan-1-yl-2-chloro-4′-hydroxy-biphenyl-4-yl)-N-hydroxy-acrylamide]",the same characteristic are retained,7.5 ± 0.1,1.4,5.4 ± 0.9,5.4 ± 0.3,5.4 ± 0.3,,,"IC50 ([3]; Homo sapiens, Table 2, SRB): 1.34 ± 0.04 µM; IC50 ([5]; Homo sapiens, Table 2, SRB): 1.61 ± 0.1 µM"
"O=C(O)/C=C/c1ccc(-c2ccc(O)c(C34CC5CC(CC(C5)C3)C4)c2)cc1 [ST1926, E-3-(4′-hydroxy-3′-adamantylbiphenyl-4-yl)acrylic acid, reference compound]",,,77.7,,,,no differentiation,,"IC50 [1]: 10.1 ± 0.7 µM; IC50 [4, 12]: 0.082 ± 0.005 µM; IC50 ([6]; Table 3, sensitive NCI-H460): 0.13 ± 0.01 µM"
"O=C(O)c1ccc2cc(-c3ccc(O)c(C45CC6CC(CC(C6)C4)C5)c3)ccc2c1 [ST1964, 6-[3′-(1-adamantyl)-4′-hydroxyphenyl]-2-naphthalenecarboxylic acid, reference compound]",,12.7 ± 0.7,34,,,0.37 ± 0.02,no differentiation,0.4 ± 0.05,
"O=C(C=Cc1ccc(-c2cc3c(c(C45CC6CC(CC(C6)C4)C5)c2)OCCO3)cc1)NO [ST3081, 3-[4-(8-Adamantan-1-yl-2,3-dihydro-benzo[1,4]dioxin-6-yl)-phenyl]-N-hydroxy-acrylamide]",the same characteristic are retained,1.39 ± 0.14,0.94,2.55 ± 0.03,1 ± 0.04,1.48 ± 0.19,,,"IC50 ([3]; Homo sapiens, Table 2, SRB): 1.22 ± 0.04 µM; IC50 ([5]; Homo sapiens, Table 2, SRB): 0.84 ± 0.02 µM"
